Measured values taken from publication PMC2878737 (Channels (Austin, Tex.), 2009).

Experiments:
NaV1.2 = NaV1.2 (Rattus norvegicus, UniProt P04775)
NaV1.2[F385C] = NaV1.2[F385C] (Rattus norvegicus, UniProt P04775, F385C); settings: cited from earlier work
Sequence of NaV1.2[F385C] (P04775 whole entry F385C, looked up): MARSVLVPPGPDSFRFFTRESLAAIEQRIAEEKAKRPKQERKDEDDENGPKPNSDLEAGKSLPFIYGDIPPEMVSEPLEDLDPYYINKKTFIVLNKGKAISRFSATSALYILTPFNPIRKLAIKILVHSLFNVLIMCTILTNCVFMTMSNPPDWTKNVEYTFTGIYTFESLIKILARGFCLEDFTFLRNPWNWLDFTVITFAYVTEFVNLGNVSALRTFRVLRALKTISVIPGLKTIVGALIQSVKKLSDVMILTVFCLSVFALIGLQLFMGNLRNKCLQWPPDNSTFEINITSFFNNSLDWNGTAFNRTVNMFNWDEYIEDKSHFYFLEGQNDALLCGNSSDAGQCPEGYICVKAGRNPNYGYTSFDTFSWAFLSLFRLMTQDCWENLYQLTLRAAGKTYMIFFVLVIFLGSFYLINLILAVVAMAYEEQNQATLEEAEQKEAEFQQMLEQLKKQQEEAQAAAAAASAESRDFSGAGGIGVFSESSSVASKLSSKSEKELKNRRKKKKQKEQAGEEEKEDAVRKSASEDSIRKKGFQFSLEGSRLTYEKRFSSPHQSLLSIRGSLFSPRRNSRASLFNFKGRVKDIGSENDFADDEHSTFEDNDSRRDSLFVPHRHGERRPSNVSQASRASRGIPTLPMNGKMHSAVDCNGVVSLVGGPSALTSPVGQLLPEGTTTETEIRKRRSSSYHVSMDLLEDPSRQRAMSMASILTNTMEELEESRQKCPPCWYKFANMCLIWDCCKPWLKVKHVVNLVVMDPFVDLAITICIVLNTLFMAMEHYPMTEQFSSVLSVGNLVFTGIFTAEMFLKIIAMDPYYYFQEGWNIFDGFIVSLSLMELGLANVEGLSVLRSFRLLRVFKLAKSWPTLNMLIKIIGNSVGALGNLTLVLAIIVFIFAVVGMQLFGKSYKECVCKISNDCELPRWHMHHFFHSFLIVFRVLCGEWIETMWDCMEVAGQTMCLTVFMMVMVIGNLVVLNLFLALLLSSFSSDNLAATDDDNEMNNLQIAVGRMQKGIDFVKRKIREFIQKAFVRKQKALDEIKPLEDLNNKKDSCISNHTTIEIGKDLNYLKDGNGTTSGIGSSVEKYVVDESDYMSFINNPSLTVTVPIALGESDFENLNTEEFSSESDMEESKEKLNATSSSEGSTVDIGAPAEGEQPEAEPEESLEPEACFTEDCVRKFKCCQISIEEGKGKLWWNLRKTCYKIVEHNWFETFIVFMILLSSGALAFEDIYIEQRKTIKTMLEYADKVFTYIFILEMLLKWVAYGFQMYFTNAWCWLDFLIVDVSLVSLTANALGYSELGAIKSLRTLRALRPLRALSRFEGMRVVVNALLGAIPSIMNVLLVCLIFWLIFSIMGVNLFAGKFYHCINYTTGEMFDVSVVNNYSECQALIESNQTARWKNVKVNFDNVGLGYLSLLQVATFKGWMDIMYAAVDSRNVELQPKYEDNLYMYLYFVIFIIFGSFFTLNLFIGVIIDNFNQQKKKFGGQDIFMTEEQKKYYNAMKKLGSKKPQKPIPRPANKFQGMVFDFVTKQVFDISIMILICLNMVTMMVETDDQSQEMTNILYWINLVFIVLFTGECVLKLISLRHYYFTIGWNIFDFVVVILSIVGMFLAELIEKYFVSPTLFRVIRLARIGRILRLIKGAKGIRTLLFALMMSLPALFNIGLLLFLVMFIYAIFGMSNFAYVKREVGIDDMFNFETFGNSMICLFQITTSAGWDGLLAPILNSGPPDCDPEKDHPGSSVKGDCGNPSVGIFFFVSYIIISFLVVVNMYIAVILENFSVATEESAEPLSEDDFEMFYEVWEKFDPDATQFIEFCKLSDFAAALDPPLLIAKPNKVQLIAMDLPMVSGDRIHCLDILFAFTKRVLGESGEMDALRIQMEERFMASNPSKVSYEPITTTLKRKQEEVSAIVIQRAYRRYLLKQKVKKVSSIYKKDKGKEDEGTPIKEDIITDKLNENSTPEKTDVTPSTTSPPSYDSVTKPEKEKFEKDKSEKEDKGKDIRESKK

Sequence of NaV1.2 (P04775 whole entry, looked up): as the sequence (P04775 whole entry F385C, looked up) above, with C385F counted along it

With `NC1=N[C@H](O)[C@H]2[C@H]3O[C@]4(O)O[C@@H]([C@@H](O)[C@@]2(N1)[C@@H]4O)[C@]3(O)CO` [TTX, Tetrodotoxin] as the compound, how does the “Plateau of block at saturating [toxin] (Langmuir fit)” value (NaV1.2) read?
The value was 100%.

And the “sensitivity of NaV1.2[F385C]” value (NaV1.2[F385C])?
The value was “insensitive”.
